What was measured:
Type in all cases: ADME
[1] = The drug is tested on Bacteroides stercoris strain: HM 1036 for biotransformation under anaerobic condition. The drug concentrations were measured over 6 timepoints collected between 0 and 12 hours of incubation by liquid-chromatography-coupled mass spectrometry (LC–MS); parameters: dose 5 uM, timepoint 0, 1.5, 3, 6, 9, 12 hours; conditions: 5 µM
[2] = The drug is tested on Bacteroides fragilis strain: DSM2151 for biotransformation under anaerobic condition. The drug concentrations were measured over 6 timepoints collected between 0 and 12 hours of incubation by liquid-chromatography-coupled mass spectrometry (LC–MS); parameters: dose 5 uM, timepoint 0, 1.5, 3, 6, 9, 12 hours; conditions: 5 µM
[3] = The drug is tested on the gut metagenome community of P-01 with ENA study accession number: PRJEB31790 for biotransformation under anaerobic condition. The drug concentrations were measured over 7 timepoints collected between 0 and 12 hours of incubation by liquid-chromatography-coupled mass spectrometry (LC–MS); parameters: dose 5 uM, timepoint 0, 0.75, 1.5, 3, 6, 9, 12 hours; conditions: 5 µM
[4] = The drug is tested on Ruminococcus gnavus strain: ATCC29149 for biotransformation under anaerobic condition. The drug concentrations were measured over 6 timepoints collected between 0 and 12 hours of incubation by liquid-chromatography-coupled mass spectrometry (LC–MS); parameters: dose 5 uM, timepoint 0, 1.5, 3, 6, 9, 12 hours; conditions: mediterraneibacter gnavus, 5 µM
[5] = The drug is tested on Lactobacillus ruminis strain: ATCC25644 for biotransformation under anaerobic condition. The drug concentrations were measured over 6 timepoints collected between 0 and 12 hours of incubation by liquid-chromatography-coupled mass spectrometry (LC–MS); parameters: dose 5 uM, timepoint 0, 1.5, 3, 6, 9, 12 hours; conditions: ligilactobacillus ruminis, 5 µM
[6] = The drug is tested on the gut metagenome community of A-03 with ENA study accession number: PRJEB31790 for biotransformation under anaerobic condition. The drug concentrations were measured over 7 timepoints collected between 0 and 12 hours of incubation by liquid-chromatography-coupled mass spectrometry (LC–MS); parameters: dose 5 uM, timepoint 0, 0.75, 1.5, 3, 6, 9, 12 hours; conditions: 5 µM
[7] = The drug is tested on the gut metagenome community of T-04 with ENA study accession number: PRJEB31790 for biotransformation under microaerobic condition. The drug concentrations were measured over 7 timepoints collected between 0 and 12 hours of incubation by liquid-chromatography-coupled mass spectrometry (LC–MS); parameters: dose 5 uM, timepoint 0, 0.75, 1.5, 3, 6, 9, 12 hours; conditions: 5 µM
[8] = The drug is tested on Bacteroides caccae strain: DSM19024 for biotransformation under anaerobic condition. The drug concentrations were measured over 6 timepoints collected between 0 and 12 hours of incubation by liquid-chromatography-coupled mass spectrometry (LC–MS); parameters: dose 5 uM, timepoint 0, 1.5, 3, 6, 9, 12 hours; conditions: 5 µM
[9] = The drug is tested on Lactobacillus paracasei strain: ATCC27092 for biotransformation under anaerobic condition. The drug concentrations were measured over 6 timepoints collected between 0 and 12 hours of incubation by liquid-chromatography-coupled mass spectrometry (LC–MS); parameters: dose 5 uM, timepoint 0, 1.5, 3, 6, 9, 12 hours; conditions: lacticaseibacillus paracasei, 5 µM
[10] = The drug is tested on Bacteroides uniformis strain: DSM6597 for biotransformation under anaerobic condition. The drug concentrations were measured over 6 timepoints collected between 0 and 12 hours of incubation by liquid-chromatography-coupled mass spectrometry (LC–MS); parameters: dose 5 uM, timepoint 0, 1.5, 3, 6, 9, 12 hours; conditions: 5 µM
[11] = The drug is tested on Coprococcus comes strain: ATCC27758 for biotransformation under anaerobic condition. The drug concentrations were measured over 6 timepoints collected between 0 and 12 hours of incubation by liquid-chromatography-coupled mass spectrometry (LC–MS); parameters: dose 5 uM, timepoint 0, 1.5, 3, 6, 9, 12 hours; conditions: 5 µM
[12] = The drug is tested on the gut metagenome community of A-03 with ENA study accession number: PRJEB31790 for biotransformation under microaerobic condition. The drug concentrations were measured over 7 timepoints collected between 0 and 12 hours of incubation by liquid-chromatography-coupled mass spectrometry (LC–MS); parameters: dose 5 uM, timepoint 0, 0.75, 1.5, 3, 6, 9, 12 hours; conditions: 5 µM
[13] = The drug is tested on Lactobacillus gasseri strain: DSM20243 for biotransformation under microaerobic condition. The drug concentrations were measured over 6 timepoints collected between 0 and 12 hours of incubation by liquid-chromatography-coupled mass spectrometry (LC–MS); parameters: dose 5 uM, timepoint 0, 1.5, 3, 6, 9, 12 hours; conditions: 5 µM
[14] = The drug is tested on Gemella haemolysans strain: DSM107751 for biotransformation under microaerobic condition. The drug concentrations were measured over 6 timepoints collected between 0 and 12 hours of incubation by liquid-chromatography-coupled mass spectrometry (LC–MS); parameters: dose 5 uM, timepoint 0, 1.5, 3, 6, 9, 12 hours; conditions: 5 µM
[15] = The drug is tested on the gut metagenome community of P-04 with ENA study accession number: PRJEB31790 for biotransformation under microaerobic condition. The drug concentrations were measured over 7 timepoints collected between 0 and 12 hours of incubation by liquid-chromatography-coupled mass spectrometry (LC–MS); parameters: dose 5 uM, timepoint 0, 0.75, 1.5, 3, 6, 9, 12 hours; conditions: 5 µM
[16] = The drug is tested on Clostridium ramosum strain: DSM1402 for biotransformation under anaerobic condition. The drug concentrations were measured over 6 timepoints collected between 0 and 12 hours of incubation by liquid-chromatography-coupled mass spectrometry (LC–MS); parameters: dose 5 uM, timepoint 0, 1.5, 3, 6, 9, 12 hours; conditions: thomasclavelia ramosa, 5 µM
[17] = The drug is tested on Streptococcus salivarius strain: DSM20560 for biotransformation under anaerobic condition. The drug concentrations were measured over 6 timepoints collected between 0 and 12 hours of incubation by liquid-chromatography-coupled mass spectrometry (LC–MS); parameters: dose 5 uM, timepoint 0, 1.5, 3, 6, 9, 12 hours; conditions: 5 µM
[18] = The drug is tested on the gut metagenome community of T-01 with ENA study accession number: PRJEB31790 for biotransformation under anaerobic condition. The drug concentrations were measured over 7 timepoints collected between 0 and 12 hours of incubation by liquid-chromatography-coupled mass spectrometry (LC–MS); parameters: dose 5 uM, timepoint 0, 0.75, 1.5, 3, 6, 9, 12 hours; conditions: 5 µM
[19] = The drug is tested on Clostridium bolteae strain: DSM15670 for biotransformation under anaerobic condition. The drug concentrations were measured over 6 timepoints collected between 0 and 12 hours of incubation by liquid-chromatography-coupled mass spectrometry (LC–MS); parameters: dose 5 uM, timepoint 0, 1.5, 3, 6, 9, 12 hours; conditions: enterocloster bolteae, 5 µM
[20] = The drug is tested on the gut metagenome community of A-02 with ENA study accession number: PRJEB31790 for biotransformation under anaerobic condition. The drug concentrations were measured over 7 timepoints collected between 0 and 12 hours of incubation by liquid-chromatography-coupled mass spectrometry (LC–MS); parameters: dose 5 uM, timepoint 0, 0.75, 1.5, 3, 6, 9, 12 hours; conditions: 5 µM
[21] = The drug is tested on Streptococcus salivarius strain: DSM20560 for biotransformation under microaerobic condition. The drug concentrations were measured over 6 timepoints collected between 0 and 12 hours of incubation by liquid-chromatography-coupled mass spectrometry (LC–MS); parameters: dose 5 uM, timepoint 0, 1.5, 3, 6, 9, 12 hours; conditions: 5 µM
[22] = The drug is tested on Streptococcus mitis strain: DSM12643 for biotransformation under microaerobic condition. The drug concentrations were measured over 6 timepoints collected between 0 and 12 hours of incubation by liquid-chromatography-coupled mass spectrometry (LC–MS); parameters: dose 5 uM, timepoint 0, 1.5, 3, 6, 9, 12 hours; conditions: 5 µM
[23] = The drug is tested on the gut metagenome community of A-04 with ENA study accession number: PRJEB31790 for biotransformation under microaerobic condition. The drug concentrations were measured over 7 timepoints collected between 0 and 12 hours of incubation by liquid-chromatography-coupled mass spectrometry (LC–MS); parameters: dose 5 uM, timepoint 0, 0.75, 1.5, 3, 6, 9, 12 hours; conditions: 5 µM

Measured: Bacterial Biotransformation

CCCC1O[C@@H]2C[C@H]3[C@@H]4CCC5=CC(=O)C=C[C@]5(C)[C@H]4[C@@H](O)C[C@]3(C)[C@]2(C(=O)CO)O1 (some centres undefined) [BUDESONIDE]
Compound metabolized: [3] | [7] | [12] | [18] | [23]
Compound NOT metabolized: all other assays above

C[C@]12CCC(=O)C=C1CC[C@@H]1[C@@H]2C(=O)C[C@@]2(C)[C@H]1CC[C@]2(O)C(=O)CO [CORTISONE]
Compound metabolized: [3] | [4] | [6] | [12] | [15] | [18] | [20] | [23]
Compound NOT metabolized: all other assays above

C[C@@H]1C[C@H]2[C@@H]3CCC4=CC(=O)C=C[C@]4(C)[C@@]3(F)[C@@H](O)C[C@]2(C)[C@@]1(O)C(=O)CO [DEXAMETHASONE]
Compound metabolized: [6] | [20]
Compound NOT metabolized: all other assays above

Reference: ChEMBL document CHEMBL5724806, “Unraveling interindividual differences and functional consequences of gut microbial metabolism of immunosuppressants” (2024)
